Experimental data: ChEMBL document CHEMBL1201862, “PubChem BioAssay data set” (2004)
The source made the active and inactive calls.

Assays:
[1] = biological target: Induced myeloid leukemia cell differentiation protein Mcl-1 (Homo sapiens, UniProt Q07820); type: functional
[2] = biological target: T1, Tyrosine-protein phosphatase non-receptor type 7 (Homo sapiens, UniProt P35236); test: redox-active compounds inhibiting HePTP phosphatase – biochemical, fluorescence, mechanism study (AID 2068); type: functional
T1 sequence (P35236 whole entry): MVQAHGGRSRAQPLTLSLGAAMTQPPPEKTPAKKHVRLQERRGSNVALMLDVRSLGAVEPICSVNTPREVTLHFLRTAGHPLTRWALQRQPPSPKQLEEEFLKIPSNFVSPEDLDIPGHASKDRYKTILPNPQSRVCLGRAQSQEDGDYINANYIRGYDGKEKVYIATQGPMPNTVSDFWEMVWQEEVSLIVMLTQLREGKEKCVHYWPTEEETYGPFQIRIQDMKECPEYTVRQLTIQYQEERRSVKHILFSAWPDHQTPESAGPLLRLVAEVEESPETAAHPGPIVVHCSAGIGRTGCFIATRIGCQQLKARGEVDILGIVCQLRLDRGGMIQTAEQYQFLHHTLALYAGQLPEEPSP

[3] = biological target: Genome polyprotein (dengue virus type 2, UniProt P29990); test: flavivirus cap methylation enzyme inhibition – biochemical, confirmation dose response, primary screen (AID 588689); type: functional
Genome polyprotein, sequence (P29990 2492-3391 limits assumed): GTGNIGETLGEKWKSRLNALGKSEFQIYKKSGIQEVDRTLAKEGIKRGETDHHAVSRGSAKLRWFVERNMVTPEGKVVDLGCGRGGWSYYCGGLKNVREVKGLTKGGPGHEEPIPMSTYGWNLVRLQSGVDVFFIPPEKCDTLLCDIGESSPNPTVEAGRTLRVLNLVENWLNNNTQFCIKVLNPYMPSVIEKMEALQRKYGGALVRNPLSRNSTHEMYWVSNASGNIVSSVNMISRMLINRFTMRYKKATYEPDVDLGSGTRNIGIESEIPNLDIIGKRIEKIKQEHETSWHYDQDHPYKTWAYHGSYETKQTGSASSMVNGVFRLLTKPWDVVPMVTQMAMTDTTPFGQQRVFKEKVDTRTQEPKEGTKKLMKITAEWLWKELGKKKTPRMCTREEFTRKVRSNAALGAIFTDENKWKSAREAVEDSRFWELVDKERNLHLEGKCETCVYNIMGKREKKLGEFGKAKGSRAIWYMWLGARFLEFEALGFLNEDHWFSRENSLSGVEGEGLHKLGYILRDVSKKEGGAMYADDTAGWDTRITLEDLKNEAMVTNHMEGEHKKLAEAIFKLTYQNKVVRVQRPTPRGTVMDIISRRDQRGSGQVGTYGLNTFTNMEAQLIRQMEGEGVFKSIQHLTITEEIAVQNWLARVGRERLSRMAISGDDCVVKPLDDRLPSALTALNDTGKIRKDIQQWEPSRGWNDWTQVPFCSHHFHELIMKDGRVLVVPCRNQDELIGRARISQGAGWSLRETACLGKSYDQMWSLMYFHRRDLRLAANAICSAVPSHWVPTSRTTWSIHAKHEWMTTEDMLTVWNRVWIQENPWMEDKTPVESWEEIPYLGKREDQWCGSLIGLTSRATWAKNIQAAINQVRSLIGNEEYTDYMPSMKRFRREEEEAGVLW

[4] = biological target: T2, Polyadenylate-binding protein 1 (Homo sapiens, UniProt P11940); test: MLLE binding blockers, Cy5 peptide tracer – biochemical, fluorescence polarization, Cy5-PAM2 peptide, secondary, miRNA deadenylation inhibitor project, dose response (AID 602260); type: functional; conditions: read-out: IC50_Mean
T2 sequence (P11940 whole entry, the tested form may be a part): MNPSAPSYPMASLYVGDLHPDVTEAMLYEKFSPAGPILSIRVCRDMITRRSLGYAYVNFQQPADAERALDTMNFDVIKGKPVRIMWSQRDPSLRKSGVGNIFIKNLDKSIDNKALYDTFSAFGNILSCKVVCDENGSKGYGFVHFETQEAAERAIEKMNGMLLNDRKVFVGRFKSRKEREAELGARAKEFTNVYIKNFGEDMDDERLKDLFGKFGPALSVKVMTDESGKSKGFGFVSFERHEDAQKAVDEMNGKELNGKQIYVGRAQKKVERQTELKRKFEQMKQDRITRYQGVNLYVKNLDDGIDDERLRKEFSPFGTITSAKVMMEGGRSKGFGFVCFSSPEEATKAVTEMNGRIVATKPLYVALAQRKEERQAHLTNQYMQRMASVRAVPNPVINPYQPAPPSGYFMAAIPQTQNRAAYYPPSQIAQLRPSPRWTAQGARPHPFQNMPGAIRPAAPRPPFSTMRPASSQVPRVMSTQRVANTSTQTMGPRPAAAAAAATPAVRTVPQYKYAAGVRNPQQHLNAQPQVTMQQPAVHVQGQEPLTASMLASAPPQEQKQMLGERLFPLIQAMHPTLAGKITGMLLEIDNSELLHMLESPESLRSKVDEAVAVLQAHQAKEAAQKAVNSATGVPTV

[5] = biological target: T2, Polyadenylate-binding protein 1; test: MLLE domain peptide-binding blockers, IC50 – biochemical, fluorescence polarization, FITC-PAM2 peptide, dose response (AID 602259); type: functional; conditions: read-out: IC50_Mean
[6] = system: J774.A1; test: Confirmation of image-based Screening Assay for Inhibitors of Phagocytosis. [Related pubchem assays (depositor defined):AID1029, AID1643]; type: functional, cell-based; conditions: Mus musculus
[7] = system: T-cell; test: loss of vesicle association with mouse CD8+ T cells – mouse 2C CD8+ T cells, flow cytometry, dose response (AID 485284); type: functional
[8] = biological target: CAAX prenyl protease 2 (Saccharomyces cerevisiae S288c, UniProt Q03530); type: biochemical
CAAX prenyl protease 2, sequence (Q03530 whole entry, the tested form may be a part): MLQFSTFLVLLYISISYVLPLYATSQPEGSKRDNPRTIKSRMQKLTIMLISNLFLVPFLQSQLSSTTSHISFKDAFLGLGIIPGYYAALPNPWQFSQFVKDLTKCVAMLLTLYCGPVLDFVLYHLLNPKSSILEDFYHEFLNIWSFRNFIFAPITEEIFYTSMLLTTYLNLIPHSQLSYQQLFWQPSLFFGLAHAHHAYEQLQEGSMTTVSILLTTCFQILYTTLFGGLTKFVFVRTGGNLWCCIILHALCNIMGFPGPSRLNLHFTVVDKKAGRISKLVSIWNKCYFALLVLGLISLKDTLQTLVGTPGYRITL

[9] = biological target: Envelope glycoprotein gp160 (Human immunodeficiency virus 1, UniProt Q6QLK5); test: cell-free HIV fusion peptide-binding blockers – biochemical, uHTS, fluorescence dequenching, […] (AID 1986)
Envelope glycoprotein gp160, sequence (Q6QLK5 whole entry, the tested form may be a part): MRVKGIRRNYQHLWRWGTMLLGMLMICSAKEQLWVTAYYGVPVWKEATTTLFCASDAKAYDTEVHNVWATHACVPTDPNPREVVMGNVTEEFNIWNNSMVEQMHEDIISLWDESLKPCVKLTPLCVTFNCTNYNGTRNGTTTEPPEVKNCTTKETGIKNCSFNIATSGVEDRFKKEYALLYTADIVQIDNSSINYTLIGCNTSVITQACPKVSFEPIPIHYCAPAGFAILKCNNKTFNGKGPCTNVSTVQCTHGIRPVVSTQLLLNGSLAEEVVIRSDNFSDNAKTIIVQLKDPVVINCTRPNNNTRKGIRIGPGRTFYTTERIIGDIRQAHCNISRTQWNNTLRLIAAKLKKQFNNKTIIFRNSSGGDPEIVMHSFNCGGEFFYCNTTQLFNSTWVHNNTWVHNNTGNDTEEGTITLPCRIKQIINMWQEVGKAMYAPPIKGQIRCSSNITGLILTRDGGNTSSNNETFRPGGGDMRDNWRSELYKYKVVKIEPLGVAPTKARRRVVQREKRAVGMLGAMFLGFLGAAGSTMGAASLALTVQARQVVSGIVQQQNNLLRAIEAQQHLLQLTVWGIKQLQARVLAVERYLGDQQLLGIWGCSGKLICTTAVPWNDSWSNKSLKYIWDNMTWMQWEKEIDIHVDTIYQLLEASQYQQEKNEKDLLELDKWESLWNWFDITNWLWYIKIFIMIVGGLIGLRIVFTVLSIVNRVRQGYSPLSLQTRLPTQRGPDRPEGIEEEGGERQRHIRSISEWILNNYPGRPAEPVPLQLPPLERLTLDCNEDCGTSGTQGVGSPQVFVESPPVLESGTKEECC

[10] = biological target: T3, SUMO-activating enzyme (Homo sapiens, UniProt Q9UBT2); test: blockers of UBC9-mediated SUMO conjugation – biochemical, AlphaScreen, SUMOylation inhibitor project, confirmation (AID 2018); type: functional
T3 sequence (Q9UBE0 whole entry): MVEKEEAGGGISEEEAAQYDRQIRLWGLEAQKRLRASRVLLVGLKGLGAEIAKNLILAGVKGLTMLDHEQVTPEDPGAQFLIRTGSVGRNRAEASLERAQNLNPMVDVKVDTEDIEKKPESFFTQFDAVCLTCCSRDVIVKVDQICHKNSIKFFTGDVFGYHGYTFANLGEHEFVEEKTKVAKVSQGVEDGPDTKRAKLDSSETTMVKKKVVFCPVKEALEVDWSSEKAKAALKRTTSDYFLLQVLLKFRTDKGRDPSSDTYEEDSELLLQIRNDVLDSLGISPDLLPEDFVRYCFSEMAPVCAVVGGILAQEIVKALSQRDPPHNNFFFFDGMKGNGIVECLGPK
T3 sequence (Q9UBT2 whole entry): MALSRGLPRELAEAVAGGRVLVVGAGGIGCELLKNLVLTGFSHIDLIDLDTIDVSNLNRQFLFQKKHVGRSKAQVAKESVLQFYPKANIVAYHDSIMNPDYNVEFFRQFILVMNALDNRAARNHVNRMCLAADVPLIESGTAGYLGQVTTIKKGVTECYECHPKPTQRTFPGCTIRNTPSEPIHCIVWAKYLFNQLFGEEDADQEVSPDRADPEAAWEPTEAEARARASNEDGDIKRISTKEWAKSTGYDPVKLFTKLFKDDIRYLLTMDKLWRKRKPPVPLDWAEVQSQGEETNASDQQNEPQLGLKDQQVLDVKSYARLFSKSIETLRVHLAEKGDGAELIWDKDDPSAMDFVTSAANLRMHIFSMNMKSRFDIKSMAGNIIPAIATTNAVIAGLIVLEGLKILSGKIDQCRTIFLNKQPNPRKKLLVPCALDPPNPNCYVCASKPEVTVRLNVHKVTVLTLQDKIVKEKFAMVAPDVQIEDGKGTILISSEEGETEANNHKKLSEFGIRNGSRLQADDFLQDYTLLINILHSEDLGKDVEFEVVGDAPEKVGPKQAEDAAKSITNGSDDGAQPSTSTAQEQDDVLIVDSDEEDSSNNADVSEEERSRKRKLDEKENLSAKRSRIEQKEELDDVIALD

[11] = biological target: T3, SUMO-activating enzyme; test: blockers of SAE1/SAE2–UBC9 SUMO transfer – biochemical, HTRF, uHTS, primary screen (AID 2006); type: protein-complex assay
[12] = biological target: Eukaryotic translation initiation factor 4E (Mus musculus, UniProt P63073); test: blockers of eIF4G binding by eIF4E – biochemical, TR-FRET, dose response (AID 855); type: functional;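 further: potency for disrupting eIF4E binding to eIF4GI seen as loss of FRET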
Eukaryotic translation initiation factor 4E, sequence (P63073 whole entry): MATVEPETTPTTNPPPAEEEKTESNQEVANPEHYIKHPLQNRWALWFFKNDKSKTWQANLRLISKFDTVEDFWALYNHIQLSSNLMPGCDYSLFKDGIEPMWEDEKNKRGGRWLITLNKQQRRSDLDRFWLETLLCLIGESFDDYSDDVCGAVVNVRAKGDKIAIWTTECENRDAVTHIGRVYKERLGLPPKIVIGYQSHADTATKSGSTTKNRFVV

[13] = biological target: T4, Small ubiquitin-related modifier 2 (Homo sapiens, UniProt P61956); test: disruption of SUMO2 interaction with SIM peptide – biochemical, fluorescence polarization, uHTS hits, selectivity assay for SUMO1 interaction inhibitor project, dose response (AID 624385); type: functional; conditions: read-out: IC50_Mean
T4 sequence (P61956 whole entry): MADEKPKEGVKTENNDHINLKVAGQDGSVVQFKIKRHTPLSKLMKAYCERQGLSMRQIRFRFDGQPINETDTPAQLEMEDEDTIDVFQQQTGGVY

[14] = biological target: T5, Small ubiquitin-related modifier 1 (Homo sapiens, UniProt P63165); test: SUMO1 protein interaction blockers, potency – biochemical, fluorescence polarization, uHTS hits, dose response (AID 624382); type: functional; conditions: read-out: IC50_Mean
T5 sequence (P63165 whole entry): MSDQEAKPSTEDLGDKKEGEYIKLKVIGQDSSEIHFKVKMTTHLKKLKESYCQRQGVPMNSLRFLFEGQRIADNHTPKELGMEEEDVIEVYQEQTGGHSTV

[15] = biological target: T4, Small ubiquitin-related modifier 2; test: SUMO2 binding disruption by SUMO1 hits – biochemical, FRET, human SUMO2, uHTS hits, selectivity assay for SUMO1 interaction inhibitor project, dose response (AID 624384); type: functional; conditions: read-out: IC50_Mean
[16] = biological target: T5, Small ubiquitin-related modifier 1; test: SUMO1 protein-protein binding blockers, potency – biochemical, FRET, dose response (AID 624383); type: functional; conditions: read-out: IC50_Mean
[17] = biological target: Diphosphomevalonate decarboxylase (Streptococcus pneumoniae serotype 2 (strain D39 / NCTC 7466), UniProt Q9FD53); test: diphosphomevalonate decarboxylase inhibitor confirmation – biochemical, cuvette format, coupled NADH fluorescence (AID 1028); type: functional
[18] = biological target: Phosphomannomutase 2 (Homo sapiens, UniProt O15305); test: Counter screen SAR assay for PMM2 inhibitors via a fluorescence intensity assay. [Related pubchem assays (depositor defined):AID1545, AID1574]
Phosphomannomutase 2, sequence (O15305 whole entry): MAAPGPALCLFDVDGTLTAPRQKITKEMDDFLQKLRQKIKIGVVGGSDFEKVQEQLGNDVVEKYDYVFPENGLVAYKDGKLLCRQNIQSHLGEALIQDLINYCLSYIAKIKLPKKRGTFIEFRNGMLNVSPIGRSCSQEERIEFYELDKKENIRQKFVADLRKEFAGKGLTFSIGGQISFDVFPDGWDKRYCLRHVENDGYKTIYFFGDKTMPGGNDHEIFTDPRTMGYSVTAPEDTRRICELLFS

[19] = biological target: Phosphoethanolamine/phosphocholine phosphatase (Homo sapiens, UniProt Q8TCT1); test: SAR assay for compounds that inhibit PHOSPHO1. [Related pubchem assays (depositor defined):AID1545, AID1565, AID1574]
Phosphoethanolamine/phosphocholine phosphatase, sequence (Q8TCT1 whole entry): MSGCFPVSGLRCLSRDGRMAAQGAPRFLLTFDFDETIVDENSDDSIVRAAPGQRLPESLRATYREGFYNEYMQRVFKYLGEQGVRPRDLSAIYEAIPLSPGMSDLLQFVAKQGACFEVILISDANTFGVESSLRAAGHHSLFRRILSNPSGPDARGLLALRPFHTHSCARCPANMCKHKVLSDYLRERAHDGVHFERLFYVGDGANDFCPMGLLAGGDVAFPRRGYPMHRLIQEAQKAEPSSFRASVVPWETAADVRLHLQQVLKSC

[20] = biological target: T6, Alkaline phosphatase, tissue-nonspecific isozyme (Homo sapiens, UniProt P05186); test: potency against alkaline phosphatase TNAP – biochemical, luminescent, dose response, SAR follow-up (AID 1056)
T6 sequence (P05186 whole entry): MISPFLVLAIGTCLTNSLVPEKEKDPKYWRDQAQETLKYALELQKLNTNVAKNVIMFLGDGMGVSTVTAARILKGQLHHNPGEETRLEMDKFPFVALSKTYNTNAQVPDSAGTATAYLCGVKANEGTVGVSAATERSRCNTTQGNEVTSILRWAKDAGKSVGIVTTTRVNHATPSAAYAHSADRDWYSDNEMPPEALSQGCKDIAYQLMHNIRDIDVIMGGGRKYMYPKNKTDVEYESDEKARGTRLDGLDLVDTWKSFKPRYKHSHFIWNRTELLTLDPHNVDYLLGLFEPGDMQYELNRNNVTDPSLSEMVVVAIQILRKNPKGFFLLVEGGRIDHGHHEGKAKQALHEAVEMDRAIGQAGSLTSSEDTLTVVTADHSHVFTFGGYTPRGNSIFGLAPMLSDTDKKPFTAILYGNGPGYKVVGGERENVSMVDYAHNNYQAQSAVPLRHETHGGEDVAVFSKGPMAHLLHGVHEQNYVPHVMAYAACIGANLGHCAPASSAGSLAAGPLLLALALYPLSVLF

Induced myeloid leukemia cell differentiation protein Mcl-1, sequence (Q07820 whole entry): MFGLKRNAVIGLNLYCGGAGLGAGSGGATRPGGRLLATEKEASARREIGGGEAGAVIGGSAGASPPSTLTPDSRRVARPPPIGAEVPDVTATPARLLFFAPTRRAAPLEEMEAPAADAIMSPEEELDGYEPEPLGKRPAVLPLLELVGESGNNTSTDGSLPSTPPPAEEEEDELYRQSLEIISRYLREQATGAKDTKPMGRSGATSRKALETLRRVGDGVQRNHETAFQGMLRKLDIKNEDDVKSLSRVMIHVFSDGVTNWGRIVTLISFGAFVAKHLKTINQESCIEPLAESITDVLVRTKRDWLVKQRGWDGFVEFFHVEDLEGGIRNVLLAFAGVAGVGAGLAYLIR

COc1ccc2nc(-c3ccco3)c(-c3ccco3)nc2c1
IC50 [1]: 3.09 µM (active) | IC50 [2]: 2.79 µM (active) | IC50 [3]: 73.9 µM (active) | IC50 [4]: > 66 µM (inactive) | IC50 [5]: > 66 µM (inactive)

COc1ccccc1/C=C/C(=O)OCC(=O)Nc1cc(C(F)(F)F)ccc1N1CCOCC1
IC50 [6]: > 25 µM (inactive)

COc1ccc(C2=CC(=O)CC(c3ccc(OC)cc3)C2)cc1 (stereo unspecified)
EC50 [7]: 4.09 µM (active)

CCN(CC)CCN(C(=O)c1cc2ccccc2cc1OC)c1nc2ccc(F)cc2s1
AC50 [8]: 6.98 µM (active)

O=C(O)c1cccc2c1NC(c1cccc([N+](=O)[O-])c1)C1CC(Sc3ccccc3[N+](=O)[O-])C(Cl)C21 (stereo unspecified)
IC50 [9]: 12.5 µM (active) | IC50 [10]: 2.43 µM (active) | IC50 [11]: 13.3 µM (active) | IC50 [1]: 3.05 µM (active) | IC50 [12]: 50 µM (inactive) | IC50 [13]: 6.5 µM (active) | IC50 [14]: 6.45 µM (active) | IC50 [15]: 6.16 µM (active) | IC50 [16]: 36.6 µM (inactive)

CN(C)C(=O)c1cccc(-n2sc3ccccc3c2=O)c1
IC50 [17]: 24.4 µM (active) | IC50 [18]: 76.4 µM (active) | IC50 [19]: 0.139 µM (active) | IC50 [20]: > 100 µM (inactive)
